Where a SMILES comes first, the peptide text is derived from it. [ ]: non-standard residue; d: D form. The star is where a group is joined. X1 = O=C(COc1c(-c2csc(N3CCOCC3)n2)ccc(F)c1F)NCCCCCCN*; X4 = O=C(COc1c(-c2csc(N3CCOCC3)n2)ccc(F)c1F)NCCCCN*; X2 = Fc1ccc(-c2csc(N3CCOCC3)n2)c(OCCOCCOCCN*)c1F; X3 = O=C(NCCCCCCN*)c1cccc2sc(N3CCOCC3)nc12; Dip = N[C@H](C(=O)O)C(c1ccccc1)c1ccccc1; Chg = N[C@H](C(=O)O)C1CCCCC1; NMeA = CN[C@@H](C)C(=O)O
tested on: CWR22R; test: Antiproliferative activity against human 22Rv1 cells assessed as reduction in cell viability at 10 uM incubated for 48 hrs by automated cell counting analysis relative to control; type: functional

| SMILES | inhibition at 10 µM [%] |
| --- | --- |
| CN[C@@H](C)C(=O)N[C@H](C(=O)N1Cc2cc(OCCOCCOc3c(-c4csc(N5CCOCC5)n4)ccc(F)c3F)ccc2C[C@H]1C(=O)N[C@@H]1CCCc2ccccc21)C(C)(C)C | > 50 |
| O=C1CCC(N2C(=O)c3cccc(NCCCCCCNC(=O)c4cn(-c5csc(N6CCOCC6)n5)cn4)c3C2=O)C(=O)N1 (stereo unspecified) | 0 |
| Cc1ncsc1-c1ccc([C@H](C)NC(=O)[C@@H]2C[C@@H](O)CN2C(=O)[C@@H](NC(=O)CCCCNC(=O)COc2c(-c3csc(N4CCOCC4)n3)ccc(F)c2F)C(C)(C)C)cc1 | < 50 |
| NCCCCCCCCCCNc1cccc2c1C(=O)N(C1CCC(=O)NC1=O)C2=O (stereo unspecified) | < 50 |
| COc1cc(C(=O)NCCOCCOCCOc2c(-c3csc(N4CCOCC4)n3)ccc(F)c2F)ccc1NC(=O)[C@@H]1N[C@@H](CC(C)(C)C)[C@](C#N)(c2ccc(Cl)cc2F)[C@H]1c1cccc(Cl)c1F | > 50 |
| CN[C@@H](C)C(=O)N[C@H](C(=O)N1Cc2cc(OCCOCCOCCOc3c(-c4csc(N5CCOCC5)n4)ccc(F)c3F)ccc2C[C@H]1C(=O)N[C@@H]1CCCc2ccccc21)C(C)(C)C | > 50 |
| COc1cc(C(=O)NCCCCNC(=O)COc2c(-c3csc(N4CCOCC4)n3)ccc(F)c2F)ccc1NC(=O)[C@@H]1N[C@@H](CC(C)(C)C)[C@](C#N)(c2ccc(Cl)cc2F)[C@H]1c1cccc(Cl)c1F | > 50 |
| CN[C@@H](C)C(=O)N[C@H](C(=O)N1CCC[C@H]1C(=O)N[C@H](C(=O)NCCCCCCNC(=O)COc1c(-c2csc(N3CCOCC3)n2)ccc(F)c1F)C(c1ccccc1)c1ccccc1)C1CCCCC1 (H-[NMeA][Chg]P[Dip]-X1) | > 50 |
| CN[C@@H](C)C(=O)N[C@H](C(=O)N1CCC[C@H]1C(=O)N[C@H](C(=O)NCCOCCOCCOc1c(-c2csc(N3CCOCC3)n2)ccc(F)c1F)C(c1ccccc1)c1ccccc1)C1CCCCC1 (H-[NMeA][Chg]P[Dip]-X2) | > 50 |
| CN[C@@H](C)C(=O)N[C@H](C(=O)N1CCC[C@H]1C(=O)N[C@H](C(=O)NCCCCCCNC(=O)c1cccc2sc(N3CCOCC3)nc12)C(c1ccccc1)c1ccccc1)C1CCCCC1 (H-[NMeA][Chg]P[Dip]-X3) | > 50 |
| CN[C@@H](C)C(=O)N[C@H](C(=O)N1CCC[C@H]1C(=O)N[C@H](C(=O)NCCCCNC(=O)COc1c(-c2csc(N3CCOCC3)n2)ccc(F)c1F)C(c1ccccc1)c1ccccc1)C1CCCCC1 (H-[NMeA][Chg]P[Dip]-X4) | > 50 |

— ChEMBL document CHEMBL4706736, “Modulating Androgen Receptor in the Therapeutic Intervention for Prostate Cancer and Kennedy's Disease” (2021)
